Assay results from PubChem BioAssay (NCI).
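These data come from cells grown in 96-well plates and exposed to compound for 48 hours at five concentrations. TGI denotes the concentration required for complete inhibition of growth.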

Legend:
Assay in all cases: DTP human tumour cell line panel, 48 h
[1] = test system: NCI-H23 lung
[2] = test system: LOX IMVI melanoma
[3] = test system: KM20L2 colon
[4] = test system: LXFL 529 NSCLC
[5] = test system: DLD-1 colon
[6] = test system: DMS 273 small cell lung
[7] = test system: M14 melanoma
[8] = test system: DMS 114 small cell lung
[9] = test system: K-562 leukemia
[10] = test system: M19-MEL melanoma
[11] = test system: XF 498 CNS
[12] = test system: HOP-62 NSCLC
[13] = test system: SNB-78 CNS
[14] = test system: OVCAR-3 ovarian
[15] = test system: HOP-18 NSCLC
[16] = test system: RXF-631 renal
[17] = test system: NCI-H226 lung

SMILES	TGI [1]	TGI [2]	TGI [3]	TGI [4]	TGI [5]	TGI [6]	TGI [7]	TGI [8]	TGI [9]	TGI [10]	TGI [11]	TGI [12]	TGI [13]	TGI [14]	TGI [15]	TGI [16]	TGI [17]
CC(=O)OCc1ncccc1C(OC(C)=O)OC(C)=O	> 100 µM	> 100 µM	> 100 µM	> 100 µM	> 100 µM	> 100 µM	> 100 µM	> 100 µM	> 100 µM	> 100 µM	> 100 µM	> 100 µM	> 100 µM	> 100 µM	> 100 µM		
CC(=O)NC(CCCCN(Cc1ccccc1)C(=O)N(C)N=O)C(=O)NCc1ccccc1 (stereo not given)	> 100 µM	> 100 µM	> 100 µM	> 100 µM	> 100 µM	> 100 µM	> 100 µM	> 100 µM	> 100 µM	> 100 µM	> 100 µM	> 100 µM	> 100 µM	> 100 µM		> 100 µM	> 100 µM
COc1cc(CO)cc2c1[nH]c1ccccc12		> 25 µM	> 25 µM	> 25 µM	> 25 µM	> 25 µM	> 25 µM	> 25 µM	> 25 µM	> 25 µM	> 25 µM	> 25 µM	> 25 µM	> 25 µM	> 25 µM		5.27 µM
NC(=S)N/N=C(/CCN1CCCC1)CC(C1=C(O)C2=CCCCC2OC1=O)c1ccccc1 (stereo not given)	> 100 µM	> 100 µM	> 100 µM	> 100 µM	> 100 µM		> 100 µM		> 100 µM	> 100 µM	> 100 µM	> 100 µM	> 100 µM	> 100 µM	> 100 µM		> 100 µM
O=C(c1nc2ccc(Cl)cc2[nH]c1=O)C(O)c1ccco1 (stereo not given)	> 100 µM	> 100 µM	85.1 µM	> 100 µM	> 100 µM	> 100 µM	> 100 µM	> 100 µM	> 100 µM	> 100 µM				> 100 µM	> 100 µM	> 100 µM	> 100 µM
COc1ccc([C@H]2[C@@H]3CCc4ccccc4C3=NN2C(N)=S)cc1OC	> 100 µM	> 100 µM	> 100 µM	> 100 µM	> 100 µM		> 100 µM	93.7 µM	66.9 µM	> 100 µM	> 100 µM	> 100 µM	> 100 µM	> 100 µM	> 100 µM		> 100 µM
FC(F)(F)c1nc2c(ccc3[nH]c4c(-c5ccccc5)nccc4c32)[nH]1	> 100 µM	> 75.9 µM	> 100 µM	> 100 µM	> 100 µM		> 100 µM	> 61 µM	> 100 µM	> 100 µM	> 100 µM	> 100 µM	> 100 µM	> 100 µM	> 100 µM	> 100 µM	> 100 µM
